Tests used:
[1] = tested on: Caco-2; experiment: cell viability relative to DMSO; higher = less toxic; details: 72 h
[2] = tested on: Calu-3; experiment: as above; details: 72 h
[3] = tested on: HepG2; experiment: as above; details: 72 h
[4] = tested on: U2OS; experiment: as above; details: 72 h
[5] = tested on: Vero E6; experiment: as above; details: 72 h
[6] = tested on: Caco-2; experiment: relative viability EC50 (midpoint between 100% and the lowest measured viability); higher = less toxic; details: 72 h
[7] = tested on: Calu-3; experiment: as above; details: 72 h
[8] = tested on: HepG2; experiment: as above; details: 72 h
[9] = tested on: U2OS; experiment: as above; details: 72 h
[10] = tested on: Vero E6; experiment: as above; details: 72 h
[11] = tested on: Caco-2; experiment: drug sensitivity score (DSS) for viability; higher = more toxic; extreme values may be limits of the assay; details: 72 h
[12] = tested on: Calu-3; experiment: as above; details: 72 h
[13] = tested on: HepG2; experiment: as above; details: 72 h
[14] = tested on: U2OS; experiment: as above; details: 72 h
[15] = tested on: Vero E6; experiment: as above; details: 72 h
[16] = tested on: A549-ACE2 infected with SARS-CoV-2; experiment: cell count relative to DMSO; higher = less toxic; details: 24 h
[17] = tested on: A549-ACE2 infected with SARS-CoV-2; experiment: SARS-CoV-2 infection rate relative to DMSO; higher = more infection; details: 24 h
[18] = tested on: A549-ACE2; experiment: phospholipidosis EC50; higher = less potent phospholipidosis inducer
[19] = tested on: A549-ACE2; experiment: drug-induced phospholipidosis relative to tamoxifen; higher = more phospholipidosis
[20] = tested on: A549-ACE2 infected with SARS-CoV-2; experiment: morphology score (similarity to uninfected cells); higher = more like uninfected cells; details: 24 h

CCCCc1nc2cc(/C=C/C(=O)NO)ccc2n1CCN(CC)CC [SB-939]
cell viability [%]
Details	[1]	[2]	[3]	[4]	[5]
1 nM	98	95.4	99.3	101	107
10 nM	97.4	89.6	109	105	99.1
100 nM	98	65.5	89	83.9	95.5
1000 nM	37.6	30.7	15.7	27.9	13.4
10000 nM	0.6	7.8	0	1.1	-0.1

Details	drug sensitivity score	relative viability EC50 [nM]
[6]	–	766
[7]	–	195
[8]	–	362
[9]	–	425
[10]	–	417
[11]	12.9	–
[12]	17.6	–
[13]	16.8	–
[14]	15.5	–
[15]	16.3	–

C[N+]1(C)CCC(OC(=O)C(O)(c2ccccc2)C2CCCC2)C1 (configuration not stated) [glycopyrrolate]
cell viability [%]
Details	[1]	[2]	[3]	[4]	[5]
1 nM	104	102	108	101	106
10 nM	98.6	105	99.3	102	100
100 nM	94.8	97.7	97.4	98	100
1000 nM	103	102	92.3	99.5	99.7
10000 nM	96	98.5	105	95.1	98.3

Details	drug sensitivity score	relative viability EC50 [nM]
[6]	–	> 10000
[7]	–	> 10000
[8]	–	> 10000
[9]	–	> 10000
[10]	–	> 10000
[11]	0	–
[12]	0	–
[13]	0	–
[14]	0	–
[15]	0	–

CCC(=O)OCC(=O)[C@@]1(OC(=O)CC)[C@@H](C)C[C@H]2[C@@H]3CCC4=CC(=O)C=C[C@]4(C)[C@@]3(Cl)[C@@H](O)C[C@@]21C [beclomethasone-dipropionate]
cell viability [%]
Details	[1]	[2]	[3]	[4]	[5]
1 nM	97.1	104	97.3	96.8	95.8
10 nM	97.3	106	95.7	102	90.6
100 nM	94.3	97	99.2	95.9	102
1000 nM	104	101	81.3	99.1	80.1
10000 nM	111	88.6	80.2	97.2	99.5

Details	drug sensitivity score	relative viability EC50 [nM]
[6]	–	> 10000
[7]	–	> 10000
[8]	–	> 10000
[9]	–	> 10000
[10]	–	> 10000
[11]	0	–
[12]	0	–
[13]	2.6	–
[14]	0	–
[15]	0	–

Oc1ccc2c(c1)CC[C@H](c1ccccc1)[C@@H]2c1ccc(OCCN2CCCC2)cc1 [lasofoxifene]
Details	SARS-CoV-2 infection rate [%]	cell count [%]	cell viability [%]	morphology score	phospholipidosis EC50 [nM]
[1], 1 nM	–	–	101	–	–
[1], 10 nM	–	–	106	–	–
[1], 100 nM	–	–	97.5	–	–
[1], 1000 nM	–	–	100	–	–
[1], 10000 nM	–	–	60.1	–	–
[2], 1 nM	–	–	88.7	–	–
[2], 10 nM	–	–	96.6	–	–
[2], 100 nM	–	–	97.6	–	–
[2], 1000 nM	–	–	95.9	–	–
[2], 10000 nM	–	–	3.8	–	–
[3], 1 nM	–	–	93.4	–	–
[3], 10 nM	–	–	97.3	–	–
[3], 100 nM	–	–	106	–	–
[3], 1000 nM	–	–	93.8	–	–
[3], 10000 nM	–	–	27.6	–	–
[4], 1 nM	–	–	105	–	–
[4], 10 nM	–	–	99.3	–	–
[4], 100 nM	–	–	102	–	–
[4], 1000 nM	–	–	95	–	–
[4], 10000 nM	–	–	69.3	–	–
[5], 1 nM	–	–	99.5	–	–
[5], 10 nM	–	–	103	–	–
[5], 100 nM	–	–	103	–	–
[5], 1000 nM	–	–	102	–	–
[5], 10000 nM	–	–	61.2	–	–
[16], 0.1 µM	–	105	–	–	–
[16], 0.3 µM	–	102	–	–	–
[16], 1 µM	–	106	–	–	–
[16], 3 µM	–	120	–	–	–
[17], 0.1 µM	98	–	–	–	–
[17], 0.3 µM	95	–	–	–	–
[17], 1 µM	78	–	–	–	–
[17], 3 µM	40	–	–	–	–
[18], 24 h	–	–	–	–	2320
[18], 48 h	–	–	–	–	2820
[18], 72 h	–	–	–	–	3000
[20], 0.1 µM	–	–	–	0.1	–
[20], 0.3 µM	–	–	–	0.07	–
[20], 1 µM	–	–	–	0.48	–
[20], 3 µM	–	–	–	0.72	–

drug-induced phospholipidosis [%], [19]
Details	0.3 µM	0.833333 µM	3.33333 µM	6.66667 µM	10 µM
24 h	8.45	22	81.6	102	112
48 h	7.62	12.5	79.3	91.7	119
72 h	6.02	12	69	83.8	120

Details	drug sensitivity score	relative viability EC50 [nM]
[7]	–	2840
[8]	–	2460
[11]	2	–
[12]	5.9	–
[13]	5	–
[14]	2.2	–
[15]	1.8	–

O=C(Nc1cccc(C(F)(F)F)c1)Nc1cc(S(=O)(=O)NC2CC2)ccc1-c1ccsc1 [AGI-6780]
cell viability [%]
Details	[1]	[2]	[3]	[4]	[5]
1 nM	94.2	96.9	93.3	97.6	95.1
10 nM	93	90.4	103	98.9	97.4
100 nM	99.8	99	94	101	93.5
1000 nM	97.4	103	105	92.3	97.2
10000 nM	85.7	110	86.5	87.5	106

Details	drug sensitivity score	relative viability EC50 [nM]
[6]	–	> 10000
[7]	–	> 10000
[8]	–	> 10000
[9]	–	> 10000
[10]	–	> 10000
[11]	0.4	–
[12]	0	–
[13]	0.1	–
[14]	0.4	–
[15]	0	–

Reference: the supplement of paper PMC13380429
